Test results as given in patent publication US20050214898A1, “Methods of carotenoid production in bacteria” (priority 2004, published 2005).
Values joined by “and” are separate entries in the source; they are usually repeats but may differ in a detail not shown here. Identical values can stand only once. “Also recorded” adds a separate entry of the source.

What was measured:
[1] = system: F. multivorum; assay: Effect of TCA cycle intermediates in the growth medium on zeaxanthin production; format: cell-based, Flavobacterium multivorum; conditions: growth medium supplemented with TCA intermediate
Description: (§1) Pigment extraction from bacterial cells. One ml of culture broth was centrifuged at 5000 rpm for 10 min at 4° C. The supernatant was discarded and media components of the cell pellet were washed away by repeated suspension in sterile distilled water and centrifugation. The cell mass was subjected to sonication using a sonic dismembrator (Fisher Scientific, Model number F60) in the presence of 1 ml cold, oxygen-free methanol containing 0.01% butylated hydroxy toluene (BHT) (w/v) for 30 seconds (output power 5). Methanol extraction was repeated for complete extraction of carotenoids. The sonicated sample was centrifuged to remove the white cell pellet. The supernatant contains extracted carotenoids.
(§2) High performance liquid chromatography (HPLC). The pigments in methanol were dried by vacuum evaporation in a Speedvac Plus (SC 110, Savant) and re-dissolved in one ml of HPLC mobile phase (hexane: dichloromethane: methanol: N,N′-di-isopropylethylamine (80:19.2:0.7:0.1 v/v)). HPLC separation was carried out at a flow rate of 1.0 ml min^−1 on a cyano column (Microsorb 25 cm length×4.6 mm id, Rainin Instrument Co. Woburn, Mass., U.S.A.). The column was maintained at room temperature and the HPLC detector was operated at 450 nm.
Media optimization for zeaxanthin production.

[2] = system: F. multivorum ATCC 55238; assay: Effect of salt supplementation of the basal medium on growth and carotenoid production (shake flask); format: cell-based, Flavobacterium multivorum; conditions: for effect on growth: basal medium supplemented with salt; for effect on the volumetric production of β-carotene / β-carotene as proportion of the total carotenoid content: basal medium supplemented with salt 250 mg/100 ml
Description: as §1
as §2, with “nm. Peak identities were confirmed by photodiode-array spectra and by coelution with authentic standards as necessary.” for “nm.”
Cell growth measurement. Cell growth was monitored by measurement of turbidity at […] with a UV-visible spectrophotometer (Smart Spec™ 3000, BioRad). Samples were suitably diluted (so as to have absorbance of between 0.2 to 0.8) with double distilled water. The absorbance was measured immediately at 500 nm. For cell dry weight (CDW) estimation, the 10 ml sample was centrifuged at 10,000 g for 10 minutes and washed twice with double distilled water by suspension and centrifugation. The supernatant was discarded and the cell pellet was taken to constant weight in an oven at 80° C.
Effect of salt supplementation. F. multivorum was studied for growth and carotenoid production in the liquid basal medium supplemented with the salts listed in Table 1 (see, FIG. 7) (250 mg/100 ml) to evaluate the effect of mineral salts. The F. multivorum cultures were grown in quadruplicate in shake flask cultures at 30° C. on a rotary shaker rotates at 250 rpm.

**Q.** With O=C(O)CC(O)C(=O)O (stereo not drawn) [malic acid] as the compound, how does the “effect on the volumetric production of zeaxanthin” value [1] read?
**A.** Its value is “maximum stimulatory effect”.

**Q.** O=C(O)CC(C(=O)O)C(O)C(=O)O (stereo not drawn) [Isocitric acid, isocitric acid] was tested. Which “effect on the volumetric production of zeaxanthin” value [1] did it give?
**A.** The value was “maximum stimulatory effect”.

**Q.** With O=C([O-])[O-].[Na+].[Na+] [sodium carbonate] as the compound, how does the effect on growth [2] read?
**A.** Its effect on growth is “minor inhibition on growth”.

**Q.** What about the “effect on the volumetric production of β-carotene” value [2] of the same compound?
**A.** Its value is “positive effect; also recorded: maximum stimulatory effect”.

**Q.** What about the “β-carotene as proportion of the total carotenoid content” value [2] of the same compound?
**A.** The value was 70 % (w/w) and 69 % (w/w).

**Q.** What does the source list for NC(N)=O [Urea, urea]?
**A.** effect on growth [2]: minor inhibition on growth; effect on the volumetric production of β-carotene [2]: maximum stimulatory effect; β-carotene as proportion of the total carotenoid content [2]: 66 % (w/w); effect on the volumetric production of β-carotene ([2]; listed as urea): positive effect; β-carotene as proportion of the total carotenoid content ([2]; listed as urea): 70 % (w/w)

**Q.** How did the “maximum β-carotene level (proportion of total carotenoid)” value ([2]; at 24 h of growth phase) turn out when [Cl-].[Li+] [Lithium chloride] was run?
**A.** The value was 44 %, w/w.

**Q.** What about the “β-carotene level (proportion of total carotenoid)” value ([2]; end of fermentation (48 h)) of the same compound?
**A.** Its value is 21 % (w/w).

**Q.** Which results are given for [Ca+2].[Cl-].[Cl-] [calcium chloride]?
**A.** effect on growth [2]: minor inhibition on growth; effect on the volumetric production of β-carotene [2]: maximum stimulatory effect; β-carotene as proportion of the total carotenoid content [2]: 52 % (w/w)
